Active and inactive are the calls of the source.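 The calls were made as follows: active = compounds giving half or more protection of infected cells from virus-caused growth loss, again on retest; inactive = the rest.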 Where a SMILES comes first, the peptide text is derived from it.
Test system: CEM cells HIV-1 protection, formazan growth assay
Test: NCI AIDS Antiviral Assay
Conditions: for IC50: measured here: growth of uninfected CEM cells
Summary of the method: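 Steps: treat uninfected and HIV-1-infected human CEM cells at five drug levels; quantify growth by soluble formazan; retest any compound reaching 50% protection; classify actives from the retest.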

SMILES	EC50 [µM]	IC50 [µM]	outcome
C/C=C(\C)C(=O)N1c2ccccc2CC1c1c(C)[nH]c2ccccc12 (stereo not drawn)	> 21.9	6.92	
C=CCOCCC(CC=C)C(=O)CC(=O)OC (stereo not drawn)	> 251	195	
COc1c2c(cc3c1C(=O)c1c(O)cccc1C3=O)CC(O)CC2 (stereo not drawn)	> 200	> 200	
Nc1nc(Cl)cc(NCC2(CO)CCC(OCc3ccccc3)C2)n1 (stereo not drawn)	14.5	17.8	
CCOC(C)OC1CC(n2cc(C)c(=O)[nH]c2=O)OC1CO (stereo not drawn)	> 14.8	13.2	
Cc1nc2ccccc2c(=O)n1NC(=S)Nc1ccc(Cl)cc1[N+](=O)[O-]	> 93.3	> 93.3	
O=C1c2cc3c(cc2CC12Cc1ccc4c(c1C2=O)CCCC4)CCCC3 (stereo not drawn)	> 200	> 200	
NC(=O)NNc1nc2ccccc2c(=O)n1NC(=O)C(=O)Nc1ccc(Cl)cc1Cl	> 79.4	> 79.4	
CSC1=NC(C(N)=O)C(N)N1C (stereo not drawn)	> 200	> 200	
O=[N+]([O-])c1ccc(N=Cc2ccc(Cl)cc2)cc1	> 200	9.77	
COc1cccc2c(SCC(=O)Nc3ccccc3-c3ccccc3NC(=O)CSc3c4ccccc4nc4c(OC)cccc34)c3ccccc3nc12			inactive
COC(=O)c1ccc2c(c1)CC1(C2)Cc2cc3c(cc2C1=O)CCC3 (stereo not drawn)	> 200	20	
CC(=O)N1C(NN(C)C)CCN1c1ccccc1 (stereo not drawn)	> 200	32.4	
Cc1ccc(S(=O)(=O)N2CCSCCSCCSCCSCC2)cc1	> 12	> 12	
CCN1c2ccccc2NC(=S)c2c1n[nH]c2-c1ccccc1	> 200	53.7	
COC1=C(C2=C(OC)C(=O)c3cc4c(c(O)c3C2=O)C(=O)OC(C)C4)C(=O)c2c(cc3c(c2O)C(=O)OC(C)C3)C1=O (stereo not drawn)			inactive
CN(C(=O)CC(=O)CP(=O)(c1ccccc1)c1ccccc1)c1ccccc1	> 200	135	
COc1ccc(-c2c(-c3ccccc3)c(C)nc3nc(SC)nc(SC)c23)cc1OC	> 200	11.5	
Cc1ccc(NC(=O)CC/C(CC(=O)c2ccc(F)cc2)=N\NC(=O)C(=O)NN)cc1C	> 11.7	> 11.7	
N#CNC1=NCOCN1	> 708	> 708	
N=C(N)SCCNC[C@@H](O)[C@@H](O)CNCCSC(=N)N	> 537	437	
COP(=O)(OC)/C(=C/c1cn(C(C)=O)c2ccccc12)NC(C)=O	> 200	17.4	

SMILES	EC50 [µM]	IC50 [µM]	outcome
O=C(O)C1Cc2c([nH]c3ccccc23)C=N1 (stereo not drawn)			inactive
CC12CCC(C(=O)n3c1nc1ccccc13)C(C)(C)O2 (stereo not drawn)	> 200	> 200	
CCCCC(C)CCCC1=C(O)/C(=C/C(=O)O)OC1=O (stereo not drawn)	174	447	
C=C(C)C(=Nc1ccc(Cl)c(Cl)c1)N(C)C			inactive
COC1OC(=O)c2ccccc21 (stereo not drawn)			inactive
COc1cc([N+](=O)[O-])c(S(=O)(=O)O)cc1NS(=O)(=O)c1ccc(C)cc1	> 200	> 200	
CC(C)(C)OC(=O)c1ccc(NCC2=C(Br)C(=O)C=CC2=O)cc1	> 200	11.5	
CC(O)C(NC(=O)C(CCCCN)NC(=O)C(CC(=O)O)NC(=O)C(N)Cc1ccccc1)C(=O)NC(CO)C(=O)NC(CC(N)=O)C(=O)NC(CO)C(=O)N1CCCC1C(=O)NC(Cc1ccc(O)cc1)C(=O)NC(Cc1cnc[nH]1)C(=O)NC(Cc1ccccc1)C(=O)O (stereo not drawn) (H-FDKTSNSPYHF-OH; configuration not given here)	> 46.8	> 46.8	
COc1ccccc1NC(=O)/C(=C\N1CCNC1=S)C(C)=O	> 200	> 200	
O=C(CN1CCCCC1)CC(O)(C(F)(F)F)C(F)(F)F	> 200	66.1	
CSC1=C(SC)SC(=C2SC3=C(SC(=C4SCCS4)S3)S2)S1	> 100	> 100	
CC(C)Cn1cnc2c(NCC(C)O)nc3ccccc3c21 (stereo not drawn)	> 200	87.1	
CCOP(=O)(OCC)C1C(CO)OC(n2ccc(=O)[nH]c2=O)C1O (stereo not drawn)	> 200	74.1	
Nc1ccc(-c2ncc3cc(-c4cccc(-c5cc6cnc(-c7ccc(N)cc7)nc6c6ccccc56)c4)c4ccccc4c3n2)cc1	> 200	> 200	
COc1ccc2c(=O)c(-c3ccc(OC)c(OC)c3OCc3ccccc3)coc2c1	> 200	69.2	
O=C(c1ccc(Cl)cc1)N(C(=S)N1CCN(c2ccccc2)CC1)C1CCCCC1	> 6.17	> 6.17	
NC(=O)C(N)c1ccccc1 (stereo not drawn)	> 200	> 200	
O=S1c2ccccc2Sc2ccccc21	75.9	174	
COc1ccc(-n2c(=O)c3[nH]c(=S)[nH]c3n(-c3ccc(OC)cc3)c2=S)cc1	> 200	> 200	
S=C(NCCNC(=S)[S][Sn]([c]1ccccc1)([c]1ccccc1)[c]1ccccc1)[S][Sn]([c]1ccccc1)([c]1ccccc1)[c]1ccccc1	> 0.1	0.0646	
CCOC(=O)C1=CN=C2C(=O)N(c3ccccc3)N(C)C2(C)C1=N (stereo not drawn)	> 200	> 200	
COc1ccc(N2C(=O)[C@H]3[C@H]4CC(C(C)(C)C)CC[C@H]4c4c(n(C)c5ccccc45)[C@H]3C2=O)cc1 (stereo partly drawn)	> 15.1	> 15.1	
